The values below come from US20140100419A1, “ACTIVE VITAMIN D OR ANALOGS THEREOF FOR USE IN IN VIVO OR IN VITRO FERTILIZATION” (priority 2011, published 2014).

In assay [1] the test system is human spermatozoa. The experiment in a line: Acrosome reaction (PSA-FITC staining). Format: cell-based. The procedure:
(§1) Calcium measurements and the acrosome reaction were performed on motile spermatozoa isolated after percoll density gradient centrifugation (Supra sperm gradients, (ORIGO)) following the manufacturer's instructions. Briefly, spermatozoa were separated from seminal plasma by centrifugation on a discontinuous percoll gradient using a two-step gradient comprising 2 ml layers of 55% and 80% percoll respectively. Semen was placed on the top of the gradient and centrifuged at 300×g for 25 min. The spermatozoa at the base of the 80% fraction were collected and washed with a 5 ml volume of capacitating medium (CaCl2 1.5 mM, KCl 4.3 mM, NaHCO3 31 mM, HEPES 15 mM, Human Serum Albumin 5 mg/ml, Glucose 4.5 mM, Sodium Pyruvate 0.8 mM, Synthetic Serum Replacement, 0.5 ug/ml human recombinant insulin (Sperm preparation media (ORIGO)) and finally resuspended in capacitating media and used for the following assays of calcium measurements and acrosome reaction. All men were part of the above mentioned ongoing surveillance program of semen quality among young Danish men and included after approval from the local ethical committee (No. H-4-2010-016).
Acrosome status was assessed according to a modified version of the method described by Cross et al. 1986. Motile spermatozoa were isolated by percoll gradient centrifugation, washed twice with 5 ml 0.9% sodium chloride followed by centrifugation at 300×g for 10 min. […] The smear and cytospin were fixed in 96% ethanol for 5 min after air drying, washed in distilled water and stained for minimum 2 hours with Pisum sativum agglutinin labelled with fluorescein isothiocyanate (Sigma Aldrich) in Dulbecco phosphate buffered saline at 4° C. Finally, the slides were washed in distilled water and mounted with Vectrashield (H-1080 Vectar Laboratories) and 200 spermatozoa were counted on each slide using a fluorescence microscope at a magnification of 400×. The mean percentage of acrosome-reacted spermatozoa of the two slides was calculated. When more than half the head of a spermatozoon was brightly and uniformly fluorescent, the acrosome was considered to be intact. Spermatozoa without fluorescence or with a fluorescing band limited to the equatorial segment were considered to be acrosome-reacted. Spermatozoa with a fluorescing band limited to the equatorial segment were named eq-AR. The person assessing the slides was blinded to the treatment of the sample.

Assay [2] concerns human spermatozoa. Put plainly: Sperm motility (ABC) in semen samples exposed to 1,25(OH)2D3. Format: cell-based. The procedure: The participants produced a semen sample by masturbation. Self-reported information of duration of ejaculation abstinence was obtained. Trained technicians conducted semen analysis and a detailed description of assessment of semen samples has previously been published. Semen volume was estimated by weighing. For sperm motility assessment, duplicates of 10 μl of well-mixed semen were placed on a glass slide, examined on a heating stage kept at 37° C., under a microscope at ×400 magnification, and spermatozoa were classified as progressive motile (WHO class A+B), non-progressive motile (class C) or immotile (class D). The average of the two motility assessments was used. For the assessment of the sperm concentration the samples were diluted in a solution of 0.6 mol/l NaHCO3 and 0.4% (v/v) formaldehyde in distilled water, and subsequently assessed using Bürker-Türk haemocytometer. Only spermatozoa with tails were counted. Finally, smears were prepared, Papanicolaou stained and spermatozoa morphology assessed according to strict criteria (Menkveld et al., 1990).
Semen samples for the in vitro studies were obtained from 40 men from the general population, who were investigated between October 2009 and December 2010. Their semen samples were assessed as described above. […] Motility assessment was conducted in 17 samples (in duplicates) under non-capacitating conditions (in their seminal plasma), and 3 samples were also analyzed in capacitating conditions. 7 consecutively included men were used to investigate a dose-response relationship between VD and sperm motility.

In assay [3] the test system is human spermatozoa. Put plainly: Sperm motility of washed spermatozoa with or without percoll gradient centrifugation. Type of assay: cell-based. Particulars: for change in proportion of motile sperm: 24 hours at room temperature, with and without percoll, not substantially different from vehicle; for motile sperm / sperm motility (mean): 60 minutes.
Assay [4] has as its system zona pellucida (ZP) of human oocytes. The experiment in a line: Human sperm-zona pellucida interaction (sperm-egg binding) test. Format: cell-based.
Text: We used the Human sperm-zona pellucida interaction test that is designed to determine the capacity of sperm to interact with the zona pellucida (ZP) of human oocytes and serves thus as a test for evaluating fertility potential of human spermatozoa. The tests provide important diagnostic information about sperm fertilising ability and we used a modified version of the test developed by Liu and Baker (Liu and Baker hum reprod 1999 Defective sperm-zona pellucida interaction: a major cause of failure of fertilization in clinical in-vitro fertilization).
If the oocyte had sperm bound to the ZP from the IVF insemination, these were removed by aspiration using a fine glass pipette with an inner diameter (120 μm) slightly smaller than the oocyte diameter. […] Oocytes with >10 sperm penetrating the ZP were not used. Also degenerate, activated or morphologically abnormal oocytes were not used for the sperm-ZP interaction test. Oocytes were pooled from several patients and used for the test on the same day or kept in the incubator and used within the next 20 days. Between 15-30 oocytes was placed in 1 ml salt solution (storage 2-4 weeks). Salt-stored human oocytes were washed with gamete buffer (COOK) with four changes in 3 hours before they were used for the sperm-egg binding test.
Semen samples from five donors were used. […] The washed sperm pellet was resuspended with sEBSS to a sperm concentration of 2×10^6/ml for the ZP-interaction test. For the assessment of the sperm concentration the samples were diluted following the manufactures instruction and subsequently determined using SP-100 (Chemometec).
For the sperm-ZP interaction tests, either high quality sperm or total sperm sample (2×10^6) in 0.5 ml of medium (+/−1 nM Calcitriol) were incubated with three oocytes for 2 h at 37° C. in 5% CO2 in air. After incubation, the oocytes were transferred to sEBSS and washed by repeated aspiration with a glass pipette (inside diameter approximately 250 μm) to dislodge sperm loosely adhering to the surface of the ZP. Sperm binding to all oocytes was assessed.
Assay [5] has as its system human spermatozoa. Put plainly: Intracellular calcium [Ca2+]i in fura-2 loaded human spermatozoa. Format: cell-based. The procedure: as §1
Semen samples were separated by percoll density gradient centrifugation to ensure viable and motile spermatozoa and resuspended in capacitating media for 1.5 hours. Afterwards, loaded with 3 μM of the fluorescent probe (intracellular calcium binding) fura-2/AM (Invitrogen, USA) for 30 min, centrifuged (10 min at 300 g) and washed with Krebs-Ringer buffer (120 mM NaCl, 15 mM NaHCO3, 5 mM KCl, 1 mM CaCl2, 5 mM Na2HPO4, 1 mM MgCl2 pH 7.3). […] Subsequently, 80 μl of the sperm sample was diluted in 920 μl Krebs-Ringer buffer and loaded on polylysine-coated chambers to minimize movement of the spermatozoa (Lab-Tek; Nalge Nunc International, USA). A Zeiss Axiovert 135 microscope equipped with a Zeiss Achrostigmat 40×1.3 NA objective was used to acquire images from the fluorescent probe. Excitation was obtained by a Polychrome Villuminator from Till Photonics (Germany) and images were acquired using a Cool Snap CCD camera (Photometrics, USA) from Robert Scientific (Malaysia). For measurements of [Ca2+]i, the excitation wavelengths were 338 and 380 nm, measuring emission above 510 nm using a cut-off filter. […] After background subtraction, ratio images were formed using MetaFluor software.
All experiments started by using low magnification to ensure visibility of several spermatozoa simultaneously. […] All measurements of [Ca^2+], were based upon evaluation of at least three spermatozoa simultaneously (see exact number in figure legends), and were repeated in at least three separate experiments. We used 10 different semen donors to ensure that all experiments were reproduced on semen samples from at least two different men.
Background: Calcium assays in cells follow changes in intracellular calcium, usually with a dye or a luminescent sensor.

Assay [6] concerns the target T1, VDR-ap (Homo sapiens, UniProt P11473).
T1 sequence (P11473 1-427): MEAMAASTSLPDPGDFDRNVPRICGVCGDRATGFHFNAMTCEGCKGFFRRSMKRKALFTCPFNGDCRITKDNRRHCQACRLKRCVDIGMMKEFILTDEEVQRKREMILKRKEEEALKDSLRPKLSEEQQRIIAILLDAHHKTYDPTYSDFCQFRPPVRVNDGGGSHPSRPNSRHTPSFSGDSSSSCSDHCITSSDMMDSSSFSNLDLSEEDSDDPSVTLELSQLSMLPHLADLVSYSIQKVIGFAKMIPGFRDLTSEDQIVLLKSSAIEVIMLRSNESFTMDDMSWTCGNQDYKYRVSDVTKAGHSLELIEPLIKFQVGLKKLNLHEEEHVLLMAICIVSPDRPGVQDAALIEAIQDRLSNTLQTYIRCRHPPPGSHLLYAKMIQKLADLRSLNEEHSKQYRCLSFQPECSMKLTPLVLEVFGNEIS
Particulars: cited from earlier work.

Where [7] appears, read: 1 nM 1,25(OH)2D3 after pretreatment with nifedipine 10 μM.

SMILES strings stand for the structures.

As for `C=C1/C(=C\C=C2/CCC[C@]3(C)[C@@H]([C@H](C)CCCC(C)(C)O)CC[C@@H]23)C[C@@H](O)C[C@@H]1O` [1,25(OH)2D3, 1,25-dihydroxycholecalciferol], in assay [1] (10^-9 M, capacitating conditions (control group 12%)), the “median acrosome reacted spermatozoa, VD group” value is on record as 21%. Moreover, the “median percentage of spermatozoa with an equatorial band (eq. AR)” value in assay [1] (10^-9 M, capacitating conditions (from 4.7%), p=0.214) is recorded as 5.3%. Moreover, in assay [1] (10^-9 M, capacitating conditions, p=0.024), the “average increase in number of acrosome reacted spermatozoa” value is listed as 6%. The “acrosome reacted spermatozoa, VD treated” value in assay [1] (non-capacitating conditions (NaCl), 6 men (control 3.7%), not significant) was determined as 4.2%. The “median decrease in sperm motility compared with control” value in assay [2] (10^-5M) came out at 15%. In addition, the “median increase in sperm motility” value in assay [2] (10^-9M, p=0.006) is reported as 7%. For the same compound, in assay [2] (10^-14M to 10^-9M, non-capacitating conditions), the “increase in median sperm motility (ABC)” value is 2-7%. For the same compound, in assay [2] (17 men, 10^-9M for 30 min at room temperature, p=0.010), the “increase in mean sperm motility” value was determined as 2.9%. Further, in assay [2] (concentrations above 10^-7M), the “sperm motility compared with control” value was “decreased motility compared with control”. Besides, in assay [3] (1 nM calcitriol), the “change in proportion of motile sperm” value was “modest decrease”. In assay [3] (1 nM, isolated by percoll gradient centrifugation (from 62%)), this compound displayed a motile sperm of 65%. The “sperm motility (mean)” value in assay [3] (1 nM, no percoll centrifugation (vehicle mean 50)) amounted to 48. The “time spermatozoa remain motile after treatment” value in assay [3] (Example 5 + FIG. 9) is recorded as “at least 24 hours”. For the same compound, the “mean number of spermatozoa bound to each oocyte” value in assay [4] (1 nM, 5 donors, all pretreatments (vehicle mean 52)) came to 74. Also, in assay [4] (1 nM, 5 donors, all pretreatments, p=0.022), the “mean difference in sperm bound versus vehicle” value is listed as 43%. In assay [4] (1 nM, isolated with percoll gradient centrifugation, p=0.027), the “average improvement of sperm-egg binding versus vehicle” value came to 28%. For the same compound, the “difference in sperm-egg binding versus vehicle” value in assay [4] (1 nM, not separated by percoll gradient centrifugation, p=0.139) is listed as 60%. In addition, in assay [4] (patient 3 (low semen quality), following percoll gradient centrifugation), the “increase in sperm-egg binding” value amounted to 33%. The “change in sperm-egg binding” value in assay [4] (patient 3 (low semen quality), not separated by Percoll centrifugation) is on record as “modest decline”. Also, in assay [5], the “threshold for the all-or-nothing calcium response” value lay in the range of 10 to 50 µM and the “time until calcium levels restore back to baseline” value is at most 2 min. Moreover, in assay [5] (1 nM 1,25(OH)2D3), the “max amplitude relative to max amplitude elicited by 10 μM progesterone” value is listed as 40-80% and the “maximum amplitude of calcium increase versus baseline calcium level” value was 5-10 fold. Further, the “amplitude of calcium response versus capacitating media” value in assay [5] (1 nM 1,25(OH)2D3, non-capacitating media, data not shown) was “lower amplitude”. Moreover, in assay [5] (setting [7]), the “length of repolarisation phase” value came out at 4 min and the “maximum amplitude of calcium increase versus baseline” value is recorded as 7 fold. Moreover, the “increase in intracellular calcium ([Ca2+]i) from baseline calcium level” value in assay [5] (1,25(OH)2D3 100 μM-10 μM (so in the source), motile spermatozoa) is 5-10 fold. Besides, in assay [5] (1,25(OH)2D3 added 9 min after initiation of thapsigargin 4 μM), the calcium response result is “unable to elicit a substantial calcium response”. Besides, the calcium response entry in assay [5] (1,25(OH)2D3 in spermatozoa exposed to 2 μM U73122) is recorded as “unable to induce a rapid increase”. In assay [5] (1,25(OH)2D3 without inhibitor), the “time to max amplitude of the normal rapid calcium response” value is listed as “within one minute”. In addition, the “duration of plateau phase of [Ca2+]i” value in assay [5] (<10 nM 1,25(OH)2D3) is “up to 50 sec”. For the same compound, the “change in Ca2+ concentration” value in assay [5] (Example 4, 1 nM (FIG. 4)) was “instant increase”. Further, the “start of calcium increase in the neck region” value in assay [5] (after addition of 1,25(OH)2D3) was at most 5 s. Also, the “increase in [Ca2+]i” value in assay [5] (calcium free media with 5 μM EGTA) is “could not induce an increase”. Further, the calcium response result in assay [5] (calcium free media without EGTA) was “marked response”. The “increase in [Ca2+]i after addition of 1 mM calcium” value in assay [5] (calcium free media, calcium added after treatment) is “comparable to the increase observed in the normal calcium containing Krebs Ringer solution”. Also, the “duration of plateau phase of [Ca2+]i” value in assay [5] (higher 1,25(OH)2D3 concentrations) was 50 to 300 s. Also, the “duration of intracellular calcium increase before return to baseline” value in assay [5] (physiological concentrations) is “up to 90 seconds”. In addition, the “effect of pre-treatment on the calcium effect of progesterone” value in assay [5] (pre-treatment with 1,25(OH)2D3, then 10 μM progesterone) is listed as “could not be abrogated”.

`C[C@H](CCCC(C)(C)O)[C@H]1CC[C@H]2C3=CC=C4C[C@@H](O)C[C@H](O)[C@@]4(C)[C@@H]3CC[C@]12C` [JN, 1α,25(OH)2-lumisterol] came in with a motile sperm in assay [3] (10 nM JN, isolated by percoll gradient centrifugation (from 69%)) of 72%. Also, in assay [3] (10 nM JN, no percoll centrifugation (vehicle mean 34)), the “sperm motility (mean)” value was 46. The “change in proportion of motile sperm” value in assay [3] (10 nM JN) is on record as “modest decrease”. In assay [4] (10 nM JN, 1 donor (vehicle mean 37)), the “mean number of spermatozoa bound to each oocyte” value is reported as 65. The “difference in sperm-egg binding versus vehicle” value in assay [4] (10 nM JN, separated by percoll gradient centrifugation) is 300%. The “average improvement of sperm-egg binding versus vehicle” value in assay [4] (10 nM JN, without percoll gradient centrifugation) is reported as 11%. For the same compound, the “affinity for VDR-ap” value in assay [6] is reported as “same affinity as 1,25(OH)2D3”.
